In US9976141B2, “Compositions and methods for inhibiting gene expression of Hif2alpha” (Arrowhead Madison Inc., priority 2015, dated 2018):

System: human (tumor) Hif2α (EPAS1) mRNA
Test: Hif2α knockdown in orthotopic RCC tumor bearing mice, single injection of RNAi trigger-delivery polymer conjugate, RT-qPCR (Table 7)
Format: in vivo
Settings: single tail vein injection, relative to isotonic glucose
Method in brief: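 A single intravenous dose of Hif2α RNAi trigger–delivery polymer conjugate, or isotonic glucose vehicle, was given to nude mice with subcapsular A498-SEAP renal tumours (about 5–6 weeks old). At the indicated time, tumour RNA was assayed by biplex TaqMan qPCR against CycA, and relative expression was calculated by ΔΔCT versus vehicle.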

[1] = RNAi trigger 50 μg, polymer 064 125 μg
[2] = RNAi trigger 115 μg, polymer 100A 375 μg
[3] = RNAi trigger 150 μg, polymer 100A 300 μg

## AD02861 (antisense UUUCAUGAAAUCGUUACGUUG; sense UAUACGUAACGAUUUCAUGAAAT; Hif2alpha RNAi agent antisense strand; modified_base 2,4,6,8,10,14 /mod_base = “2′-deoxy-2′-fluoro corresponding nucleoside”; modified_base 1,3,5,7,9,11,12,13,15,16,17,18,19,20,21 /mod_base = “2′-O-methyl corresponding nucleoside”; modified_base 2,3,20,21 /mod_base = “5′-phosphorothioate corresponding nucleotide”; Hif2alpha RNAi agent sense strand; modified_base 2 modified base = “2′-hydroxy corresponding nucleoside”; modified_base 10,11,12 /mod_base = “2′-deoxy-2′-fluoro corresponding nucleoside”; modified_base 1,3,4,5,6,7,8,9,13,14,15,16,17,18,19,20,21,22 /mod_base = “2′-O-methyl correspon)
[1]
  Relative Expression day 4 (Hif2α mRNA in kidney tumor): 0.103

## AD01555 (antisense TUUCAUGAAAUCGUUACGUTT; sense ACGUAACGAUUUCAUGAAAT; Hif2alpha RNAi agent antisense strand; modified_base 2,4,6,8,10,14,16,18 /mod_base = “2′-deoxy-2′-fluoro corresponding nucleoside”; modified_base 3,5,7,9,11,12,13,15,17,19 /mod_base = “2′-O-methyl corresponding nucleoside”; modified_base 2,3,21 /mod_base = “5′-phosphorothioate corresponding nucleotide”; Hif2alpha RNAi agent sense strand; modified_base 1,3,5,7,8,9,11,13,15,17,19 /mod_base = “2′-deoxy-2′-fluoro corresponding nucleoside”; modified_base 2,4,6,10,12,14,16,18 /mod_base = “2′-O-methyl corresponding nucleoside”; modified_base 20 /mod_base = “3′-3′-linked nucleotide”; modified_base 1)
[2]
  Relative Expression day 4 (Hif2α mRNA in kidney tumor): 0.20

## AD03190 (antisense AGUAAAACAAUUGUGUACUUUAA; sense AAAGUACACAAUUGUUUUACT; Hif2alpha RNAi agent antisense strand; modified_base 2,4,6,8,10,14,16,18 /mod_base = “2′-deoxy-2′-fluoro corresponding nucleoside”; modified_base 1,3,5,7,9,11,12,13,15,17,19,20,21,22,23 /mod_base = “2′-O-methyl corresponding nucleoside”; modified_base 2,3,22,23 /mod_base = “5′-phosphorothioate corresponding nucleotide”; Hif2alpha RNAi agent sense strand; modified_base 3,5,7,9,10,11,13,15,19 /mod_base = “2′-deoxy-2′-fluoro corresponding nucleoside”; modified_base 1,2,4,6,8,12,14,16,17,18,20 /mod_base = “2′-O-methyl corresponding nucleoside”; modified_base 21 /mod_base = “3′-3′-linked nucleoti)
[1]
  Relative Expression day 4 (Hif2α mRNA in kidney tumor): 0.269

## AD01523 (antisense TUUCAUGAAAUCGUUACGUTT; sense ACGUAACGAUUUCAUGAAAT; Hif2alpha RNAi agent antisense strand; modified_base 2,4,6,8,10,13,14,16,18 /mod_base = “2′-deoxy-2′-fluoro corresponding nucleoside”; modified_base 3,5,7,9,11,12,15,17,19 /mod_base = “2′-O-methyl corresponding nucleoside”; modified_base 21 /mod_base = “5′-phosphorothioate corresponding nucleotide”; Hif2alpha RNAi agent sense strand; modified_base 1,3,5,8,9,11,13,15,17,19 /mod_base = “2′-deoxy-2′-fluoro corresponding nucleoside”; modified_base 2,4,6,7,10,12,14,16,18 /mod_base = “2′-O-methyl corresponding nucleoside”; modified_base 20 /mod_base = “3′-3′-linked nucleotide”; modified_base 1 /mo)
[2]
  Relative Expression day 4 (Hif2α mRNA in kidney tumor): 0.49

## AD01257 (antisense TUUCAUGAAAUCGUUACGUTT; sense ACGUAACGAUUUCAUGAAAT; Hif2alpha RNAi agent antisense strand; modified_base 2,4,6,8,10,12,14,16,18 /mod_base = “2′-deoxy-2′-fluoro corresponding nucleoside”; modified_base 3,5,7,11,13,15,17,19 /mod_base = “2′-O-methyl corresponding nucleoside”; modified_base 9 /mod_base = “2′-3′ seco corresponding nucleotide”; modified_base 21 /mod_base = “5′-phosphorothioate corresponding nucleotide”; Hif2alpha RNAi agent sense strand; modified_base 1,3,5,7,9,11,13,15,17,19 /mod_base = “2′-deoxy-2′-fluoro corresponding nucleoside”; modified_base 2,4,6,8,10,12,14,16,18 /mod_base = “2′-O-methyl corresponding nucleoside”; modified_b)
RNAi trigger 80 μg, polymer 126 400 μg
  Relative Expression day 4 (Hif2α mRNA in kidney tumor): 0.24

## AD02949 (antisense UUUCAUGAAAUCGUUACGUUG; sense ACGUAACGAUUUCAUGAAAT; Hif2alpha RNAi agent antisense strand; modified_base 2,4,6,8,10,14,16,18 /mod_base = “2′-deoxy-2′-fluoro corresponding nucleoside”; modified_base 1,3,5,7,9,11,12,13,15,17,19,20,21 /mod_base = “2′-O-methyl corresponding nucleoside”; modified_base 2,3,20,21 /mod_base = “5′-phosphorothioate corresponding nucleotide”; Hif2alpha RNAi agent sense strand; modified_base 7,9,13 /mod_base = “2′-deoxy-2′-fluoro corresponding nucleoside”; modified_base 1,2,3,4,5,6,8,10,11,12,14,15,16,17,18,19 /mod_base = “2′-O-methyl corresponding nucleoside”; modified_base 20 /mod_base = “3′-3′-linked nucleotide”; modi)
[1]
  Relative Expression day 4 (Hif2α mRNA in kidney tumor): 0.176

## AD01407 (antisense TUUCAUGAAAUCGUUACGUCGGCUAU; sense UAUAUCGACGUAACGAUUUCAUGAAA; Hif2alpha RNAi agent antisense strand; modified_base 25 modified base = “2′-hydroxy corresponding nucleoside”; modified_base 2,4,6,10,12,14,16,18,20 /mod_base = “2′-deoxy-2′-fluoro corresponding nucleoside”; modified_base 3,5,7,9,11,13,15,17,19,21,22,23,24,26 /mod_base = “2′-O-methyl corresponding nucleoside”; modified_base 8 /mod_base = “2′-3′ seco corresponding nucleotide”; modified_base 2,24 /m; Hif2alpha RNAi agent sense strand; modified_base 2,4 modified base = “2′-hydroxy corresponding nucleoside”; modified_base 6,8,10,12,14,16,18,20,22,24,26 /mod_base = “2′-deoxy-2′-fluoro correspondi)
[3]
  Relative Expression day 4 (Hif2α mRNA in kidney tumor): 0.47

## AD03255 (antisense UUUCAUGAAAUCGUUACGUUGAT; sense AACGUAACGAUUUCAUGAAAT; Hif2alpha RNAi agent antisense strand; modified_base 2,4,6,8,14 /mod_base = “2′-deoxy-2′-fluoro corresponding nucleoside”; modified_base 1,3,5,7,9,10,11,12,13,15,16,17,18,19,20,21,22 /mod_base = “2′-O-methyl corresponding nucleoside”; modified_base 23 /mod_base = “3′-3′-linked nucleotide”; modified_base 2,3,22,23 /mod_base = “5′-phosphorothioate corresponding nucleotide”; Hif2alpha RNAi agent sense strand; modified_base 8,9,10 /mod_base = “2′-deoxy-2′-fluoro corresponding nucleoside”; modified_base 1,2,3,4,5,6,7,11,12,13,14,15,16,17,18,19,20 /mod_base = “2′-O-methyl corresponding nucleoside”)
[1]
  Relative Expression day 4 (Hif2α mRNA in kidney tumor): 0.264

## AD01409 (antisense TUUCAUGAAAUCGUUACGUCGGCUAU; sense UAUAUCGACGUAACGAUUUCAUGAAA; Hif2alpha RNAi agent antisense strand; modified_base 25 modified base = “2′-hydroxy corresponding nucleoside”; modified_base 2,4,6,8,10,12,14,16,18,20 /mod_base = “2′-deoxy-2′-fluoro corresponding nucleoside”; modified_base 3,5,7,11,13,15,17,19,21,22,23,24,26 /mod_base = “2′-O-methyl corresponding nucleoside”; modified_base 9 /mod_base = “2′-3′ seco corresponding nucleotide”; modified_base 2,3,23,; Hif2alpha RNAi agent sense strand; modified_base 2,4 modified base = “2′-hydroxy corresponding nucleoside”; modified_base 6,8,10,12,14,16,18,20,22,24,26 /mod_base = “2′-deoxy-2′-fluoro correspondi)
[3]
  Relative Expression day 4 (Hif2α mRNA in kidney tumor): 0.55
